# Source: US20250296916A1, “BICYCLIC PIPERAZINONES AND THERAPEUTIC USES THEREOF” (Cytokinetics, Inc., priority 2022, published 2025)
# Test system: rabbit skeletal myofibrils (approximately 90% fast fibers)
# Assay: Activation of fast skeletal myofibrils (PUMA coupled-enzyme ATPase assay)
# Assay type: biochemical
# Conditions: concentration at which the compound increased the enzymatic activity by 40%; calcium at pCa25; PM12 buffer pH 6.8
# Procedure, shortened: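 Rabbit psoas myofibrils (Triton-washed, ~90% fast fibers) at calcium giving 25% of maximal ATPase rate (pCa25). ADP regenerated via pyruvate kinase/lactate dehydrogenase coupling, NADH oxidation read as absorbance at 340 nm. Buffer 12 mM PIPES, 2 mM MgCl2, 1 mM DTT, pH 6.8.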
row,SMILES,AC1.4
1,"CC[C@H](C)[C@H]1C(=O)Nc2ccccc2N1C(=O)c1cn[nH]c1 [Compound 72, (S)-3-((S)-sec-butyl)-4-(1H-pyrazole-4-carbonyl)-3,4-dihydroquinoxalin-2(1H)-one]",0.07 µM
2,"CCC[C@H]1C(=O)Nc2ccccc2N1C(=O)c1cnc2[nH]ncc2c1 [Compound 73, (S)-3-propyl-4-(1H-pyrazolo[3,4-b]pyridine-5-carbonyl)-3,4-dihydroquinoxalin-2(1H)-one]",0.11 µM
3,"CC[C@H](C)[C@H]1C(=O)Nc2ccccc2N1C(=O)c1ccc(N)nc1 [Compound 74, (S)-4-(6-aminonicotinoyl)-3-((S)-sec-butyl)-3,4-dihydroquinoxalin-2(1H)-one]",0.08 µM
4,"CC[C@H](C)[C@H]1C(=O)Nc2ccccc2N1C(=O)c1ccc(=O)[nH]c1 [Compound 75, (S)-3-((S)-sec-butyl)-4-(6-oxo-1,6-dihydropyridine-3-carbonyl)-3,4-dihydroquinoxalin-2(1H)-one]",0.05 µM
5,"CCC[C@H]1C(=O)Nc2ccccc2N1C(=O)c1cnn(C2CC2)c1 [Compound 76, (S)-4-(1-cyclopropyl-1H-pyrazole-4-carbonyl)-3-propyl-3,4-dihydroquinoxalin-2(1H)-one]",0.47 µM
6,"CC(C)[C@H]1C(=O)Nc2ccccc2N1C(=O)c1cnn(C)c1 [Compound 77, (S)-3-isopropyl-4-(1-methyl-1H-pyrazole-4-carbonyl)-3,4-dihydroquinoxalin-2(1H)-one]",0.08 µM
7,"CC[C@H](C)[C@H]1C(=O)Nc2ccccc2N1C(=O)c1cnn(CCO)c1 [Compound 78, (S)-3-((S)-sec-butyl)-4-(1-(2-hydroxyethyl)-1H-pyrazole-4-carbonyl)-3,4-dihydroquinoxalin-2(1H)-one]",0.16 µM
8,"CC[C@H](C)[C@H]1C(=O)Nc2ccccc2N1C(=O)c1cc[nH]n1 [Compound 79, (S)-3-((S)-sec-butyl)-4-(1H-pyrazole-3-carbonyl)-3,4-dihydroquinoxalin-2(1H)-one]",0.88 µM
9,"CC[C@H](C)[C@H]1C(=O)Nc2ccccc2N1C(=O)c1cnn(CC(N)=O)c1 [Compound 80, 2-(4-((S)-2-((S)-sec-butyl)-3-oxo-1,2,3,4-tetrahydroquinoxaline-1-carbonyl)-1H-pyrazol-1-yl)acetamide]",0.63 µM
10,"CC(C)[C@H]1C(=O)Nc2ccccc2N1C(=O)c1ccc(=O)n(C)c1 [Compound 81, (S)-3-isopropyl-4-(1-methyl-6-oxo-1,6-dihydropyridine-3-carbonyl)-3,4-dihydroquinoxalin-2(1H)-one]",0.22 µM
11,"CC(C)[C@H]1C(=O)Nc2ccccc2N1C(=O)c1ccc(N)nc1 [Compound 82, (S)-4-(6-aminonicotinoyl)-3-isopropyl-3,4-dihydroquinoxalin-2(1H)-one]",0.26 µM
12,"CC(C)[C@H]1C(=O)Nc2ccccc2N1C(=O)c1cnc2[nH]ncc2c1 [Compound 83, (S)-3-isopropyl-4-(1H-pyrazolo[3,4-b]pyridine-5-carbonyl)-3,4-dihydroquinoxalin-2(1H)-one]",0.06 µM
13,"CC(C)[C@H]1C(=O)Nc2ccccc2N1C(=O)c1cnn(C2CC2)c1 [Compound 84, (S)-4-(1-cyclopropyl-1H-pyrazole-4-carbonyl)-3-isopropyl-3,4-dihydroquinoxalin-2(1H)-one]",0.29 µM
14,"CC(C)[C@H]1C(=O)Nc2ccccc2N1C(=O)c1ccc(=O)[nH]c1 [Compound 85, (S)-3-isopropyl-4-(6-oxo-1,6-dihydropyridine-3-carbonyl)-3,4-dihydroquinoxalin-2(1H)-one]",0.15 µM
15,"CC(C)[C@H]1C(=O)Nc2ccccc2N1C(=O)c1cn[nH]c1 [Compound 86, (S)-3-isopropyl-4-(1H-pyrazole-4-carbonyl)-3,4-dihydroquinoxalin-2(1H)-one]",0.2 µM
16,"CC(C)[C@H]1C(=O)Nc2cccnc2N1C(=O)c1ccc(=O)n(C)c1 [Compound 87, (S)-3-isopropyl-4-(1-methyl-6-oxo-1,6-dihydropyridine-3-carbonyl)-3,4-dihydropyrido[2,3-b]pyrazin-2(1H)-one]",2.15 µM
17,"CC[C@H](C)[C@H]1C(=O)Nc2cnccc2N1C(=O)c1ccc(=O)[nH]c1 [Compound 90, (S)-2-((S)-sec-butyl)-1-(6-oxo-1,6-dihydropyridine-3-carbonyl)-1,4-dihydropyrido[3,4-b]pyrazin-3(2H)-one]",0.71 µM

# The remaining lines, values ahead:
row,AC1.4,SMILES
1,0.72 µM,"CC[C@H](C)[C@H]1C(=O)Nc2cnccc2N1C(=O)c1ccc(=O)n(C)c1 [Compound 91, (S)-2-((S)-sec-butyl)-1-(1-methyl-6-oxo-1,6-dihydropyridine-3-carbonyl)-1,4-dihydropyrido[3,4-b]pyrazin-3(2H)-one]"
2,1.03 µM,"CC[C@H](C)[C@H]1C(=O)Nc2cccnc2N1C(=O)c1ccc(=O)n(C)c1 [Compound 92, (S)-3-((S)-sec-Butyl)-4-(1-methyl-6-oxo-1,6-dihydropyridine-3-carbonyl)-3,4-dihydropyrido[2,3-b]pyrazin-2(1H)-one]"
3,1.73 µM,"CC[C@H](C)[C@H]1C(=O)Nc2cccnc2N1C(=O)c1cnn(C)c1 [Compound 93, (S)-3-((S)-sec-butyl)-4-(1-methyl-1H-pyrazole-4-carbonyl)-3,4-dihydropyrido[2,3-b]pyrazin-2(1H)-one]"
4,1.66 µM,"CC[C@H](C)[C@H]1C(=O)Nc2cncnc2N1C(=O)c1cnn(C)c1 [Compound 94, (S)-7-((S)-sec-butyl)-8-(1-methyl-1H-pyrazole-4-carbonyl)-7,8-dihydropteridin-6(5H)-one]"
5,0.84 µM,"CC[C@H](C)[C@H]1C(=O)Nc2ncccc2N1C(=O)c1cnn(C)c1 [Compound 95, (S)-2-((S)-sec-butyl)-1-(1-methyl-1H-pyrazole-4-carbonyl)-1,4-dihydropyrido[2,3-b]pyrazin-3(2H)-one]"
6,0.6 µM,"CC(C)C[C@H]1C(=O)Nc2cnccc2N1C(=O)c1cnn(C)c1 [Compound 96, (S)-2-isobutyl-1-(1-methyl-1H-pyrazole-4-carbonyl)-1,4-dihydropyrido[3,4-b]pyrazin-3(2H)-one]"
7,0.28 µM,"CC[C@H](C)[C@H]1C(=O)Nc2cnccc2N1C(=O)c1ccccc1 [Compound 97, (S)-1-benzoyl-2-((S)-sec-butyl)-1,4-dihydropyrido[3,4-b]pyrazin-3(2H)-one]"
8,0.13 µM,"CC[C@H](C)[C@H]1C(=O)Nc2cnccc2N1C(=O)c1cccc(C)c1 [Compound 98, (S)-2-((S)-sec-butyl)-1-(3-methylbenzoyl)-1,4-dihydropyrido[3,4-b]pyrazin-3(2H)-one]"
9,0.87 µM,"CC[C@H](C)[C@H]1C(=O)Nc2ccccc2N1C(N)=O [Compound 99, (S)-2-((S)-sec-butyl)-3-oxo-3,4-dihydroquinoxaline-1(2H)-carboxamide]"
10,1.58 µM,"CC[C@H](C)[C@H]1C(=O)Nc2c(F)cccc2N1C(N)=O [Compound 100, (S)-2-((S)-sec-Butyl)-5-fluoro-3-oxo-3,4-dihydroquinoxaline-1(2H)-carboxamide]"
11,2.1 µM,"CC[C@H](C)[C@H]1C(=O)Nc2ccccc2N1C(=O)N1CC(O)C1 [Compound 101, (S)-3-((S)-sec-butyl)-4-(3-hydroxyazetidine-1-carbonyl)-3,4-dihydroquinoxalin-2(1H)-one]"
12,0.94 µM,"CC[C@H](C)[C@H]1C(=O)Nc2ccccc2N1C(=O)NC [Compound 102, (S)-2-((S)-sec-butyl)-N-methyl-3-oxo-3,4-dihydroquinoxaline-1(2H)-carboxamide]"
13,0.78 µM,"CCNC(=O)N1c2ccccc2NC(=O)[C@@H]1[C@@H](C)CC [Compound 103, (S)-2-((S)-sec-butyl)-N-ethyl-3-oxo-3,4-dihydroquinoxaline-1(2H)-carboxamide]"
14,1.31 µM,"CC[C@H](C)[C@H]1C(=O)Nc2ccccc2N1C(=O)N1CCCC1 [Compound 104, (S)-3-((S)-sec-butyl)-4-(pyrrolidine-1-carbonyl)-3,4-dihydroquinoxalin-2(1H)-one]"
15,2.23 µM,"CC[C@H](C)[C@H]1C(=O)Nc2ccccc2N1C(=O)NCCO [Compound 105, (S)-2-((S)-sec-butyl)-N-(2-hydroxyethyl)-3-oxo-3,4-dihydroquinoxaline-1(2H)-carboxamide]"
16,1.77 µM,"CC[C@H](C)[C@H]1C(=O)Nc2ccccc2N1C(=O)N1CC[C@H](O)C1 [Compound 106, (S)-3-((S)-sec-butyl)-4-((S)-3-hydroxypyrrolidine-1-carbonyl)-3,4-dihydroquinoxalin-2(1H)-one]"
17,0.44 µM,"CC[C@H](C)[C@H]1C(=O)Nc2ccccc2N1C(=O)N1CC[C@H](CO)C1 [Compound 107, (S)-3-((S)-sec-butyl)-4-((S)-3-(hydroxymethyl)pyrrolidine-1-carbonyl)-3,4-dihydroquinoxalin-2(1H)-one]"
18,2.77 µM,"CC[C@H](C)[C@H]1C(=O)Nc2ccccc2N1C(=O)N1CC[C@@H](CO)C1 [Compound 108, (S)-3-((S)-sec-butyl)-4-((R)-3-(hydroxymethyl)pyrrolidine-1-carbonyl)-3,4-dihydroquinoxalin-2(1H)-one]"
19,1.51 µM,"CC[C@H](C)[C@H]1C(=O)Nc2ccccc2N1C(=O)CO [Compound 109, (S)-3-((S)-sec-butyl)-4-(2-hydroxyacetyl)-3,4-dihydroquinoxalin-2(1H)-one]"
20,1.18 µM,"CC[C@H](C)[C@H]1C(=O)Nc2ccccc2N1C(=O)CCO [Compound 110, (S)-3-((S)-sec-butyl)-4-(3-hydroxypropanoyl)-3,4-dihydroquinoxalin-2(1H)-one]"
21,2.06 µM,"CC[C@H](C)[C@H]1C(=O)Nc2ccccc2N1C(=O)N1CC(CO)C1 [Compound 111, (S)-3-((S)-sec-butyl)-4-(3-(hydroxymethyl)azetidine-1-carbonyl)-3,4-dihydroquinoxalin-2(1H)-one]"
22,1.01 µM,"CC[C@H](C)[C@H]1C(=O)Nc2ccccc2N1C(=O)N1CC(F)C1 [Compound 112, (S)-3-((S)-sec-butyl)-4-(3-fluoroazetidine-1-carbonyl)-3,4-dihydroquinoxalin-2(1H)-one]"
